Results as given in patent publication US20240190874A1, “SMALL MOLECULE DEGRADERS OF ANDROGEN RECEPTOR” (THE REGENTS OF THE UNIVERSITY OF MICHIGAN, priority 2021, published 2024).

Key:
Format in all cases: cell-based
[1] = target: T1, AR (Homo sapiens, UniProt P10275); test: Degradation of AR in VCaP cells; details: VCaP cells; for Dmax: VCaP
T1 construct: Degradation of AR; Cellular potency; host or cells: VCaP cells
T1 sequence (P10275 1-920): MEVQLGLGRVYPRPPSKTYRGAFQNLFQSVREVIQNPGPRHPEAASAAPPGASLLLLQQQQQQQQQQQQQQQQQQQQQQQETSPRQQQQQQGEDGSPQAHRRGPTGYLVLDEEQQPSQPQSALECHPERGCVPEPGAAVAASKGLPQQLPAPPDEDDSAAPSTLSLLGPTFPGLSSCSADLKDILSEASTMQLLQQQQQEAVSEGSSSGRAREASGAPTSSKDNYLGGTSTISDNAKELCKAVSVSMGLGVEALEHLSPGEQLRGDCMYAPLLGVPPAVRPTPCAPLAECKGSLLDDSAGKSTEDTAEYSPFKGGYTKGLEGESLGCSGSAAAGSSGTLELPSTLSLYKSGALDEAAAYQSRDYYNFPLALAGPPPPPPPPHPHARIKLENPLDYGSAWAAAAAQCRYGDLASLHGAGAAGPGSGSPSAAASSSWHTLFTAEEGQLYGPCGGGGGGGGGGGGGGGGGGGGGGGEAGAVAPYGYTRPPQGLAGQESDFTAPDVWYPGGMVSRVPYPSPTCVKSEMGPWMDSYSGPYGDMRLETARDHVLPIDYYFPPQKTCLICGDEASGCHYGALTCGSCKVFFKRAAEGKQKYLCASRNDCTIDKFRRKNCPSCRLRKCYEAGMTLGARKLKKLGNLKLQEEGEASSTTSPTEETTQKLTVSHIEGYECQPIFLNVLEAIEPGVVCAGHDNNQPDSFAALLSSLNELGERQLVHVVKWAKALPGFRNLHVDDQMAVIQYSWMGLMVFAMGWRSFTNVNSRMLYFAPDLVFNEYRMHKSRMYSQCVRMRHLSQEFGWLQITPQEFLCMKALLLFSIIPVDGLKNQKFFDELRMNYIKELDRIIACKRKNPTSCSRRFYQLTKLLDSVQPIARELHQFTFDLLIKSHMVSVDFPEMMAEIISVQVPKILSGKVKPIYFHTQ
Procedure: (§1) Biological Assays. LNCaP and VCaP cells used were purchased from American Type Culture Collection (ATCC). LNCaP were grown in RPMI 1640 (Invitrogen) and VCaP cells were grown in DMEM with Glutamax (Invitrogen). All of the cells were supplemented with 10% fetal bovine serum (Invitrogen) at 37° C. in a humidified 5% CO2 incubator.

[2] = system: LNCaP cells; test: Cellular potency (IC50) in LNCaP cells; details: Homo sapiens, LNCaP
Procedure: as §1

[3] = system: VCaP cells; test: Cellular potency (IC50) in VCaP cells; details: Homo sapiens, VCaP
Procedure: as §1

| SMILES | DC50 [1] [nM] | IC50 [2] [nM] | IC50 [3] [nM] | Dmax [1] [%] |
| --- | --- | --- | --- | --- |
| C[C@H]1CC2(CCN(c3ccc(CN4CCC(N5CCN(c6ccc7c(c6)C(=O)N(C6CCC(=O)NC6=O)C7=O)CC5)CC4)nn3)CC2)CN1c1ccc(C#N)c(Cl)c1 (some centres unmarked) [compound 202] | < 1 | < 10 | < 10 |  |
| C[C@H]1CC2(CCN(c3ccc(CN4CCN(C5CCN(c6cc7c(cc6F)C(=O)N(C6CCC(=O)NC6=O)C7=O)CC5)CC4)cn3)CC2)CN1c1ccc(C#N)c(Cl)c1 (some centres unmarked) [compound 165] | < 10 | < 10 | < 10 |  |
| C[C@H]1CC2(CCN(c3ccc(OC4CCN(C5CN(c6ccc7c(c6)C(=O)N(C6CCC(=O)NC6=O)C7=O)C5)CC4)nc3)CC2)CN1c1ccc(C#N)c(Cl)c1 (some centres unmarked) [compound 63] | < 1 | < 10 | < 10 | > 90 |
| C[C@H]1CC2(CCN(c3ccc(N4CCN(CC5CCN(c6ccc7c(c6)C(=O)N(C6CCC(=O)NC6=O)C7=O)CC5)CC4)cn3)CC2)CN1c1ccc(C#N)c(Cl)c1 (some centres unmarked) [compound 32] | < 1 | < 10 | < 10 | > 90 |
| C[C@H]1CC2(CCN(c3ccc(CN4CCC(C5CN(c6ccc7c(c6)C(=O)N(C6CCC(=O)NC6=O)C7=O)C5)CC4)cn3)CC2)CN1c1ccc(C#N)c(Cl)c1 (some centres unmarked) [compound 176] | < 10 | < 10 | < 10 |  |
| C[C@H]1CC2(CCN(c3ccc(OC4CN(C5CCN(c6ccc7c(c6)C(=O)N(C6CCC(=O)NC6=O)C7=O)CC5)C4)nn3)CC2)CN1c1ccc(C#N)c(Cl)c1 (some centres unmarked) [compound 74] | < 100 | < 1000 | < 1000 | 50 to 70 |
| C[C@H]1CC2(CCN(c3ccc(CN4CCC(C5CN(c6ccc7c(c6)C(=O)N(C6CCC(=O)NC6=O)C7=O)C5)CC4)nc3)CC2)CN1c1ccc(C#N)c(Cl)c1 (some centres unmarked) [compound 177] | < 1 | < 10 | < 10 |  |
| C[C@H]1CC2(CCN(c3ccc(N4CCN(CC5CN(c6ccc7c(c6)C(=O)N(C6CCC(=O)NC6=O)C7=O)C5)CC4)nn3)CC2)CN1c1ccc(C#N)c(Cl)c1 (some centres unmarked) [compound 47] | < 1 | < 10 | < 10 | > 90 |
| C[C@H]1CC2(CCN(c3ccc(CN4CCC(CN5Cc6cc7c(cc6C5)C(=O)N(C5CCC(=O)NC5=O)C7=O)CC4)cc3)CC2)CN1c1ccc(C#N)c(Cl)c1 (some centres unmarked) [compound 20] | < 100 | < 100 | < 100 | 70 to 90 |
| C[C@H]1CC2(CCN(c3ccc(OC4CN(C5CN(c6ccc7c(c6)C(=O)N(C6CCC(=O)NC6=O)C7=O)C5)C4)cc3)CC2)CN1c1ccc(C#N)c(Cl)c1 (some centres unmarked) [compound 59] | < 1 | < 10 | < 10 | > 90 |
| C[C@H]1CC2(CCN(c3ccc(OC4CCN(C5CN(c6cc7c(cc6F)C(=O)N(C6CCC(=O)NC6=O)C7=O)C5)CC4)nc3)CC2)CN1c1ccc(C#N)c(Cl)c1 (some centres unmarked) [compound 133] | < 1 | < 10 | < 10 | > 90 |
| C[C@H]1CC2(CCN(c3ccc(C4CCN(CC5CCN(c6ccc7c(c6)C(=O)N(C6CCC(=O)NC6=O)C7=O)CC5)CC4)cn3)CC2)CN1c1ccc(C#N)c(Cl)c1 (some centres unmarked) [compound 44] | < 1 | < 10 | < 10 | > 90 |
| C[C@H]1CC2(CCN(c3ccc(CN4CCN(C5CN(c6cc7c(cc6F)C(=O)N(C6CCC(=O)NC6=O)C7=O)C5)CC4)nc3)CC2)CN1c1ccc(C#N)c(Cl)c1 (some centres unmarked) [compound 172] | < 1 | < 10 | < 10 |  |
| C[C@H]1CC2(CCN(c3ccc(N4CCC(OC5CN(c6ccc7c(c6)C(=O)N(C6CCC(=O)NC6=O)C7=O)C5)CC4)cn3)CC2)CN1c1ccc(C#N)c(Cl)c1 (some centres unmarked) [compound 92] | < 1 | < 10 | < 10 | > 90 |
| C[C@H]1CC2(CCN(c3ccc(N4CCC(CN5CCN(c6ccc7c(c6)C(=O)N(C6CCC(=O)NC6=O)C7=O)CC5)CC4)cn3)CC2)CN1c1ccc(C#N)c(Cl)c1 (some centres unmarked) [compound 51] | < 10 | < 100 | < 100 | > 90 |
| C[C@H]1CC2(CCN(c3ccc(C(=O)N4CCN(C5CN(c6ccc7c(c6)C(=O)N(C6CCC(=O)NC6=O)C7=O)C5)CC4)s3)CC2)CN1c1ccc(C#N)c(Cl)c1 (some centres unmarked) [compound 135] | < 10 | < 100 | < 100 | 70 to 90 |
| C[C@H]1CC2(CCN(c3ccc(N4CCN(C5CCN(c6ccc7c(c6)C(=O)N(C6CCC(=O)NC6=O)C7=O)CC5)CC4)cc3)CC2)CN1c1ccc(C#N)c(Cl)c1 (some centres unmarked) [compound 29] | < 100 | < 100 | < 100 | > 90 |
| C[C@H]1CC2(CCN(c3ccc(N4CCC(OC5CN(c6ccc7c(c6)C(=O)N(C6CCC(=O)NC6=O)C7=O)C5)CC4)nc3)CC2)CN1c1ccc(C#N)c(Cl)c1 (some centres unmarked) [compound 91] | < 1 | < 10 | < 10 | > 90 |
| C[C@H]1CC2(CCN(c3ccc(N4CCC(N(C)C5CN(c6ccc7c(c6)C(=O)N(C6CCC(=O)NC6=O)C7=O)C5)CC4)cc3)CC2)CN1c1ccc(C#N)c(Cl)c1 (stereo partly drawn) [compound 119, 2-chloro-4-((3S)-8-(4-(4-((1-(2-(2,6-dioxopiperidin-3-yl)-1,3-dioxoisoindolin-5-yl)azetidin-3-yl)(methyl)amino)piperidin-1-yl)phenyl)-3-methyl-2,8-diazaspiro[4.5]decan-2-yl)benzonitrile] |  | < 10 | < 10 | > 90 |
| C[C@H]1CC2(CCN(c3ncc(CN4CCN(C5CN(c6ccc7c(c6)C(=O)N(C6CCC(=O)NC6=O)C7=O)C5)CC4)cn3)CC2)CN1c1ccc(C#N)c(Cl)c1 (some centres unmarked) [compound 183] | < 1 | < 100 | < 100 |  |
| C[C@H]1CC2(CCN(c3ccc(N4CCC(CN5Cc6cc7c(cc6C5)C(=O)N(C5CCC(=O)NC5=O)C7=O)CC4)cn3)CC2)CN1c1ccc(C#N)c(Cl)c1 (some centres unmarked) [compound 52] | < 10 | < 100 | < 100 | > 90 |
| C[C@H]1CC2(CCN(c3ccc(N4CCC(N(C)C5CN(c6ccc7c(c6)C(=O)N(C6CCC(=O)NC6=O)C7=O)C5)CC4)nn3)CC2)CN1c1ccc(C#N)c(Cl)c1 (some centres unmarked) [compound 125] | < 10 | < 10 | < 10 | > 90 |
| C[C@H]1CC2(CCN(c3cnc(N4CCN(CC5CCN(c6ccc7c(c6)C(=O)N(C6CCC(=O)NC6=O)C7=O)CC5)CC4)nc3)CC2)CN1c1ccc(C#N)c(Cl)c1 (some centres unmarked) [compound 83] | < 1 | < 10 | < 10 | > 90 |
| C[C@H]1CC2(CCN(c3ccc(OC4CN(C5CN(c6ccc7c(c6)C(=O)N(C6CCC(=O)NC6=O)C7=O)C5)C4)nn3)CC2)CN1c1ccc(C#N)c(Cl)c1 (some centres unmarked) [compound 73] | < 100 | < 1000 | < 1000 | 50 to 70 |
| C[C@H]1CC2(CCN(c3ccc(N4CCN(C5CN(c6ccc7c(c6)C(=O)N(C6CCC(=O)NC6=O)C7=O)C5)CC4)nc3)CC2)CN1c1ccc(C#N)c(Cl)c1 (some centres unmarked) [compound 36] | < 1 | < 10 | < 10 | > 90 |
| C[C@H]1CC2(CCN(c3ccc(CN4CCN(C5CN(c6ccc7c(c6)C(=O)N(C6CCC(=O)NC6=O)C7=O)C5)CC4)cc3)CC2)CN1c1ccc(C#N)c(Cl)c1 (some centres unmarked) [compound 5] | < 1 | < 10 | < 10 | > 90 |
| C[C@H]1CC2(CCN(c3ccc(S(=O)(=O)C4CCN(CC5CN(c6ccc7c(c6)C(=O)N(C6CCC(=O)NC6=O)C7=O)C5)CC4)cc3)CC2)CN1c1ccc(C#N)c(Cl)c1 (some centres unmarked) [compound 164] | < 1 | < 100 | < 10 |  |
| C[C@H]1CC2(CCN(c3ccc(OC4CCN(C5CN(c6cc7c(cc6F)C(=O)N(C6CCC(=O)NC6=O)C7=O)C5)CC4)nn3)CC2)CN1c1ccc(C#N)c(Cl)c1 (some centres unmarked) [compound 134] | < 1 | < 10 | < 10 | > 90 |
| C[C@H]1CC2(CCN(c3ccc(S(=O)(=O)C4CN(C(=O)CN5Cc6cc7c(cc6C5)C(=O)N(C5CCC(=O)NC5=O)C7=O)C4)cc3)CC2)CN1c1ccc(C#N)c(Cl)c1 (some centres unmarked) [compound 149] | < 1 | < 10 | < 100 |  |
